# Molecular target: T1, recombinant human GST-SYK (Homo sapiens, UniProt P43405)
# T1 construct: purchased Carna Biosciences 08-176
# Assay: Homogeneous Time-Resolved Fluorescence (HTRF) assay for the recombinant human Syk enzyme
# Assay type: biochemical
# Settings: recombinant human GST-SYK 5 pM, ATP 25 μM, read-out: rhSYK IC50
# Procedure: Homogeneous Time-Resolved Fluorescence (HTRF) Assay for the Recombinant Human Syk Enzyme
# A recombinant GST-hSYK fusion protein was used to measure potency of compounds to inhibit human Syk activity. The recombinant human GST-SYK (Carna Biosciences #08-176) (5 pM final concentration) was incubated with various concentrations of the inhibitor diluted in DMSO (0.1% final concentration) for 10 minutes at room temperature in 15 mM Tris-HCl (pH 7.5), 0.01% tween 20, 2 mM DTT in 384 well plate format. To initiate the reaction the biotinylated substrate peptide (250 nM final concentration) that contains the phosphorylation site for Syk was added with magnesium (5 mM final concentration) and ATP (25 μM final concentration). Final volume of the reaction was 10 μL. Phosphorylation of the peptide was allowed to proceed for 45′ at room temperature. To quench the reaction and detect the phosphorylated product, 2 nM of a Europium-anti-phosphotyrosine antibody (Perkin Elmer #AD0161) and 70 nM SA-APC (Perkin-Elmer #CR130-100) were added together in 15 mM Tris pH 7.5, 40 mM EDTA, 0.01% tween 20. Final volume of the quenching solution was 10 μL.
# The resulting HTRF signal was measured after 30 minutes on an EnVision (Perkin-Elmer) reader using a time-resolved fluorescence protocol. Table A below lists activities as IC50 values (nM) for representative compounds of the invention.
row,Structure (SMILES),IC50 [nM]
1,"Cc1cc(Nc2cc(C(F)(F)F)ncn2)nc(-c2cnc(C3(O)CCC(C(N)=O)C(C)C3)s2)c1 (single isomer, unassigned) [Example 1.18, rel-(1S,2R,4R or S)-4-hydroxy-2-methyl-4-[5-(4-methyl-6-{[6-(trifluoromethyl)pyrimidin-4-yl]amino}pyridin-2-yl)-1,3-thiazol-2-yl] cyclohexane-carboxamide]",1.52
2,"Cc1cc(Nc2ncnc(C)n2)cc(-c2cnc([C@@]3(O)CC[C@H](C(=O)O)C(C)(C)C3)s2)c1 [Example 2.2, (1S,4R)-4-hydroxy-2,2-dimethyl-4-(5-{3-methyl-5-[(4-methyl-1,3,5-triazin-2-yl)amino]phenyl}-1,3-thiazol-2-yl)cyclohexanecarboxylic acid]",52.3
3,"COC(=O)C1CCC(O)(c2ncc(-c3cc(Nc4nccc(C(F)(F)F)n4)cc(C)n3)s2)CC1(C)C (stereo not shown) [Example 1.8, methyl 4-hydroxy-2,2-dimethyl-4-[5-(6-methyl-4-{[4-(trifluoromethyl)pyrimidin-2-yl]amino}pyridin-2-yl)-1,3-thiazol-2-yl] cyclohexane-carboxylate]",8.37
4,"Cc1cc(Nc2cc(C(F)(F)F)ncn2)nc(-c2cnc(C3(O)CCC(C(=O)O)C(C)(C)C3)s2)c1 (single isomer, unassigned) [Example 1.7, (1S,4R or 1R,4S)-4-hydroxy-2,2-dimethyl-4-[5-(4-methyl-6-{[6-(trifluoromethyl)pyrimidin-4-yl]amino}pyridin-2-yl)-1,3-thiazol-2-yl] cyclohexane-carboxylic acid]",2.62
5,"Cc1cc(Nc2nccc(OC(C)C)n2)cc(-c2cnc([C@@]3(O)CC[C@H](C(N)=O)C(C)(C)C3)s2)n1 (single isomer, unassigned) [Example 1.1, (1S,4R or 1R,4S)-4-hydroxy-4-(5-(4-((4-isopropoxypyrimidin-2-yl)amino)-6-methylpyridin-2-yl)thiazol-2-yl)-2,2-dimethylcyclohexanecarboxamide]",1.1
6,"Cc1cc(Nc2cc(C(F)(F)F)ccn2)nc(-c2cnc(C3(O)CCC(C(=O)O)C(C)(C)C3)s2)n1 (single isomer, unassigned) [Example 1.12, (1S,4R or 1R,4S)-4-hydroxy-2,2-dimethyl-4-[5-(4-methyl-6-{[4-(trifluoromethyl)pyridin-2-yl]amino}pyrimidin-2-yl)-1,3-thiazol-2-yl]cyclohexane-carboxylic acid]",0.698
7,"COC(=O)c1ccc2c(c1)CCCC2(O)c1ncc(-c2cc(Nc3nccc(C(F)(F)F)n3)cc(C)n2)s1 (single isomer, unassigned) [Example 4.24, (R or S)-methyl 5-hydroxy-5-[5-(6-methyl-4-{[4-(trifluoromethyl)pyrimidin-2-yl]amino}pyridin-2-yl)-1,3-thiazol-2-yl]-5,6,7,8-tetrahydronaphthalene-2-carboxylate]",17.6
8,"Cc1cc(Nc2cc(C)ncn2)nc(-c2cnc(C3(O)CCCc4cc(C(=O)O)ccc43)s2)c1 (single isomer, unassigned) [Example 2.9, (R or S)-5-hydroxy-5-(5-{4-methyl-6-[(6-methylpyrimidin-4-yl)amino]pyridin-2-yl}-1,3-thiazol-2-yl)-5,6,7,8-tetrahydronaphthalene-2-carboxlic acid]",0.212
9,"CC1(C)CC(O)(c2ncc(-c3cccc(Nc4cc(C(F)(F)F)ncn4)n3)s2)CCC1C(=O)O (single isomer, unassigned) [Example 3.7, (1S,4R or 1R,4S)-4-hydroxy-2,2-dimethyl-4-[5-(6-{[6-(trifluoromethyl)pyrimidin-4-yl]amino}pyridin-2-yl)-1,3-thiazol-2-yl]cyclohexanecarboxylic acid]",4.54
10,"Cc1cnnc(Nc2cc(C)cc(-c3cnc([C@@]4(O)CC[C@H](C(=O)O)C(C)(C)C4)s3)n2)c1 (single isomer, unassigned) [Example 3.3, (1S,4R or 1R,4S)-4-hydroxy-2,2-dimethyl-4-(5-{4-methyl-6-[(5-methylpyridazin-3-yl)amino]pyridin-2-yl}-1,3-thiazol-2-yl)cyclohexanecarboxylic acid]",182

# Reference: patent publication US9745295B2, “Thiazole-substituted aminoheteroaryls as spleen tyrosine kinase inhibitors” (Merck Sharp & Dohme Corp., priority 2013, dated 2017)
